The source made the active and inactive calls. The rule behind the calls is not given here.
Columns and labels:
[1] = system: Rattus norvegicus; assay: Toxicity in rat schizophrenia model assessed as effect on basal startle amplitude at 30 mg/kg, po; format: organism-based; parameters: dose 30 mg/kg, route oral; conditions: in vivo
[2] = system: Rattus norvegicus; assay: Antischizophrenic activity in rat schizophrenia model assessed as inhibition of […] to […] dB intensity-induced prepulse at 30 mg/kg, po; format: functional, organism-based; parameters: dose 30 mg/kg
[3] = target: Cytochrome P450 3A4 (Homo sapiens, UniProt P08684); assay: Inhibition of CYP3A4 (unknown origin); format: ADME
[4] = target: Cytochrome P450 2C9 (Homo sapiens, UniProt P11712); assay: Inhibition of CYP2C9 (unknown origin); format: ADME
[5] = target: T1, Sodium- and chloride-dependent glycine transporter 1 (Homo sapiens, UniProt P48067); assay: Inhibition of GlyT1 (unknown origin) assessed as inhibition of [14C]glycine uptake
T1 sequence (P48067 whole entry): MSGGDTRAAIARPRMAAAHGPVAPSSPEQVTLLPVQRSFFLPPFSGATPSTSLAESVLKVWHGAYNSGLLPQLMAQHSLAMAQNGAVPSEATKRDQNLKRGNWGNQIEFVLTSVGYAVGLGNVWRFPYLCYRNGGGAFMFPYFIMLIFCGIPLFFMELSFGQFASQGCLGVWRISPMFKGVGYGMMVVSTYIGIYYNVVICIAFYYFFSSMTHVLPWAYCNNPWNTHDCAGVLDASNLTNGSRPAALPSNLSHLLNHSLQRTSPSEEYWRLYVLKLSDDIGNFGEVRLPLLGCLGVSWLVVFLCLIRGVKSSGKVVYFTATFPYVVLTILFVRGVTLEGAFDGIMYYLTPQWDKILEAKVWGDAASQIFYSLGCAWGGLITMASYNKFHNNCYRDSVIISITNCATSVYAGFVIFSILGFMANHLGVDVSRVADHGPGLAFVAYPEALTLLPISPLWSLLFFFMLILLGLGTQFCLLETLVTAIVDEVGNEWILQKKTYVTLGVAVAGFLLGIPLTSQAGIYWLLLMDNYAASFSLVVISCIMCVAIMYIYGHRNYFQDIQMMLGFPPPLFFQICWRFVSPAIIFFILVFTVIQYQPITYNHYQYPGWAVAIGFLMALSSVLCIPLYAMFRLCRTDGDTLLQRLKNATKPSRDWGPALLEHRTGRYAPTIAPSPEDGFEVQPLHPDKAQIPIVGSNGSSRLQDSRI

[6] = target: T2, Sodium- and chloride-dependent glycine transporter 2 (Homo sapiens, UniProt Q9Y345); assay: Inhibition of GlyT2 (unknown origin)
T2 sequence (Q9Y345 whole entry): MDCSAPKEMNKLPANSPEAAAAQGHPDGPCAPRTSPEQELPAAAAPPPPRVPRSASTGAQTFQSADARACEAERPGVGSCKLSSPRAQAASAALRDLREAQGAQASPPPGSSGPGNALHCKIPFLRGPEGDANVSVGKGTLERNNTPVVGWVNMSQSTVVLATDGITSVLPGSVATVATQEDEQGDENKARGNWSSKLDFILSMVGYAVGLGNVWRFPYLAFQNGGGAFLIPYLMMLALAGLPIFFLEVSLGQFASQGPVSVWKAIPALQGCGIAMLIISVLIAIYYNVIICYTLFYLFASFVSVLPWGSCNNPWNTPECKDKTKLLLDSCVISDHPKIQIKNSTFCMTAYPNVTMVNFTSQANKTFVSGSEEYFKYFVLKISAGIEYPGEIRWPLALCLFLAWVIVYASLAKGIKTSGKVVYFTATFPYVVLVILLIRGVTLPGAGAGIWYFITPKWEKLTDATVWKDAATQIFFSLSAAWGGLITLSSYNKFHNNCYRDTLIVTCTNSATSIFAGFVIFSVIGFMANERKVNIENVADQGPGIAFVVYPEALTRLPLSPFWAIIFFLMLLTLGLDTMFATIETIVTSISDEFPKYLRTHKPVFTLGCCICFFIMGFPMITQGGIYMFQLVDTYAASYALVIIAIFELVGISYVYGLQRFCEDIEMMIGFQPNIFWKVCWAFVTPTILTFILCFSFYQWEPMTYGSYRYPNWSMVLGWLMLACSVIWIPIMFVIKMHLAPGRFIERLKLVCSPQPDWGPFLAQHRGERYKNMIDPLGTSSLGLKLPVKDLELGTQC

[7] = target: T3, Sodium- and chloride-dependent glycine transporter 1 (Homo sapiens) (UniProt P48067); assay: Competitive inhibition of GlyT1 (unknown origin) at 40 nM by Eadie-Hofstee plot analysis in presence of [14C]-glycine
T3 sequence (whole entry): T1 sequence (P48067 whole entry)

[8] = Partitioning coefficient, ratio of drug uptake from rat brain to plasma at 10 mg/kg, po; format: ADME, organism-based; parameters: dose 10 mg/kg, route oral
[9] = system: Plasma; assay: (§1) Fraction unbound in human plasma; format: ADME, cell-free
[10] = target: Cytochrome P450 2D6 (Homo sapiens, UniProt P10635); assay: Inhibition of CYP2D6 (unknown origin); format: ADME
[11] = target: T4, Cytochrome P450 1A2 (Homo sapiens, UniProt P05177); assay: Inhibition of CYP1A2 (unknown origin); format: ADME
T4 sequence (P05177 whole entry): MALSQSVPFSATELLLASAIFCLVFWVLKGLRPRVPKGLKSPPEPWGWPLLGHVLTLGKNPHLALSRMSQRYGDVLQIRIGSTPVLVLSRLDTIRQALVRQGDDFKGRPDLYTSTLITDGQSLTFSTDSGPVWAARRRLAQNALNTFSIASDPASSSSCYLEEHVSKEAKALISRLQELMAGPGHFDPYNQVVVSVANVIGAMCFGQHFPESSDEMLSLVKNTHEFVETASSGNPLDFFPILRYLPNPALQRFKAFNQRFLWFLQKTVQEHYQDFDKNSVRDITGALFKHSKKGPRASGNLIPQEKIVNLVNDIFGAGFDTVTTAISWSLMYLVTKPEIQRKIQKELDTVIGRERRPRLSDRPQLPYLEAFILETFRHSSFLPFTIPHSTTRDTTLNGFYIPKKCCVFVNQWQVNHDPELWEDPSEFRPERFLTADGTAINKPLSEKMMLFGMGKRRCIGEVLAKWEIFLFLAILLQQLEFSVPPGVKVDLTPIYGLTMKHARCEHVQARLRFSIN

[12] = as §1; format: ADME, cell-free
[13] = system: Plasma; assay: AUC (0 to 6 hrs) in rat plasma at 10 mg/kg, po; format: ADME, organism-based; parameters: time < 6 hr, dose 10 mg/kg, route oral; conditions: in vivo
[14] = AUC (0 to 6 hrs) in rat brain at 10 mg/kg, po; format: ADME, organism-based; parameters: time < 6 hr, dose 10 mg/kg, route oral
[15] = Partitioning coefficient, ratio of drug uptake from rat brain to plasma at 10 mg/kg, sc; format: ADME, organism-based; parameters: dose 10 mg/kg, route subcutaneous
[16] = AUC (0 to 6 hrs) in rat brain at 10 mg/kg, sc; format: ADME, organism-based; parameters: time < 6 hr, dose 10 mg/kg, route subcutaneous
[17] = system: Plasma; assay: AUC (0 to 6 hrs) in rat plasma at 10 mg/kg, sc; format: ADME, organism-based; parameters: time < 6 hr, dose 10 mg/kg, route subcutaneous; conditions: in vivo
[18] = Clearance in rat at 0.5 mg/kg, iv; format: ADME, organism-based; parameters: dose 0.5 mg/kg, route intravenous; conditions: in vivo
[19] = Half life in rat at 0.5 mg/kg, iv; format: ADME, organism-based; parameters: dose 0.5 mg/kg, route intravenous; conditions: in vivo
[20] = system: Plasma; assay: Fraction unbound in rat plasma; format: ADME, cell-free
[21] = system: Plasma; assay: Metabolic stability in rat plasma after 4 hrs; format: ADME, cell-free

Chain of Cytochrome P450 2C9 (P11712 whole entry): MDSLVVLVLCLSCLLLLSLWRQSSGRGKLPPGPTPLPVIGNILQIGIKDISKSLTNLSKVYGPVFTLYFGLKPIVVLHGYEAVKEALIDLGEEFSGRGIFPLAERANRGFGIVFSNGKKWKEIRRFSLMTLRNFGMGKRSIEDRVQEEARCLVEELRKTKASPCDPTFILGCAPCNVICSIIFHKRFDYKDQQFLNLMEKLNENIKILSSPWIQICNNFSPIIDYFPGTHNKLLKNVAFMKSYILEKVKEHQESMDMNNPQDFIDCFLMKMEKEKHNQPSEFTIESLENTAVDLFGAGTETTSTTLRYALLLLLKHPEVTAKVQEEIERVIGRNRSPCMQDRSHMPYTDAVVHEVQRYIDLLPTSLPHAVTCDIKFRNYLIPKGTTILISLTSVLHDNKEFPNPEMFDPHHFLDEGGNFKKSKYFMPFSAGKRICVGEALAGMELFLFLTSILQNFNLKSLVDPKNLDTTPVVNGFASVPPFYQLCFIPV
Chain of Cytochrome P450 3A4 (P08684 whole entry): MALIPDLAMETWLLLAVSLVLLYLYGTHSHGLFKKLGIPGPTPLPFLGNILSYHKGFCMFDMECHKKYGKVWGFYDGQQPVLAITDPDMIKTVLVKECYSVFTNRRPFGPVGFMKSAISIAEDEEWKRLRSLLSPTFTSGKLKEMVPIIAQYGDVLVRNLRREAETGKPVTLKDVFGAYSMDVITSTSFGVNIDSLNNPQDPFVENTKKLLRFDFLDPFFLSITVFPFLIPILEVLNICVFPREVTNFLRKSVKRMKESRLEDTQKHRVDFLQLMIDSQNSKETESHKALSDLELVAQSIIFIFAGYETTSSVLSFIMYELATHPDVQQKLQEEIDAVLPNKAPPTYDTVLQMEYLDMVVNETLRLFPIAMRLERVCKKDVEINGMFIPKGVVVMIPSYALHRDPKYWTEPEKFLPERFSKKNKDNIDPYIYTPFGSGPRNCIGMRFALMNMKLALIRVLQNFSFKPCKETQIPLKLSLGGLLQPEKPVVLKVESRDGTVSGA
Chain of Cytochrome P450 2D6 (P10635 whole entry): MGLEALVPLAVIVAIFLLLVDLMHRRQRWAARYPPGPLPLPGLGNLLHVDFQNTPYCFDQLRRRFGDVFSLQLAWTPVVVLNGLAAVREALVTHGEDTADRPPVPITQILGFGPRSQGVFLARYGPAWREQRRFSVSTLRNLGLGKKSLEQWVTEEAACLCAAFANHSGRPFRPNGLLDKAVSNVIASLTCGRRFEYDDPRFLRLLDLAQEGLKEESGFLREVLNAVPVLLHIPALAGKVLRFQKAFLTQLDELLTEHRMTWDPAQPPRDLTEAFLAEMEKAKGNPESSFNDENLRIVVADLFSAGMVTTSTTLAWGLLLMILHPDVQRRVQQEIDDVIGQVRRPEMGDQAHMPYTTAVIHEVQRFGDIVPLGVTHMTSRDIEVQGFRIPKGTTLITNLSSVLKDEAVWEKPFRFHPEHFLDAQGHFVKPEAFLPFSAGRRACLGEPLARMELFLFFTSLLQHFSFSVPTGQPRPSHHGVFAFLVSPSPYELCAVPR

## CCS(=O)(=O)N1CCC(CNC(=O)c2ccc(Cl)cc2Cl)(CC2CC2)CC1
[1]
  Activity: Non-toxic
[2]
  inhibition: Active
[3]
  IC50: > 10 µM
[4]
  IC50: > 10 µM

## CCS(=O)(=O)N1C[C@@H]2[C@H](C1)[C@@]2(CNC(=O)c1ccc(Cl)cc1Cl)CC1CC1
[5]
  IC50: 1.3 µM
[6]
  IC50: > 30 µM

## O=C(NC[C@]1(CC2CC2)[C@@H]2CN(S(=O)(=O)c3ccccc3)C[C@@H]21)c1ccc(Cl)cc1Cl
[5]
  IC50: > 10 µM
[6]
  IC50: > 30 µM

## O=C(NC[C@]1(CC2CC2)[C@@H]2CN(S(=O)(=O)CC3CC3)C[C@@H]21)c1ccc(Cl)cc1Cl
[5]
  IC50: 0.23 µM
[6]
  IC50: > 30 µM

## Cn1cnc(S(=O)(=O)N2C[C@@H]3[C@H](C2)[C@@]3(CNC(=O)c2c(Cl)cccc2Cl)CC2CC2)c1
[7]
  inhibition: Active
[8]; brain
  Kp: 0.5
[5]
  IC50: 0.028 µM
[9]
  Fu: 8%

## NCC(=O)O [GLYCINE]
[5]
  IC50: 31.6 µM

## O=C(NC[C@]1(CC2CC2)[C@@H]2CN(S(=O)(=O)c3ccccc3F)C[C@@H]21)c1ccc(Cl)cc1Cl
[5]
  IC50: > 10 µM
[6]
  IC50: > 30 µM

## O=C(NC[C@]1(CC2CC2)[C@@H]2CN(S(=O)(=O)c3ccccn3)C[C@@H]21)c1ccc(Cl)cc1Cl
[5]
  IC50: 1 µM
[6]
  IC50: > 30 µM

## CC(C)S(=O)(=O)N1C[C@@H]2[C@H](C1)[C@@]2(CNC(=O)c1ccc(Cl)cc1Cl)CC1CC1
[5]
  IC50: 3.4 µM
[6]
  IC50: > 30 µM

## Cn1cnc(S(=O)(=O)N2C[C@@H]3[C@H](C2)[C@@]3(CNC(=O)c2cccc(C(F)(F)F)c2)CC2CC2)c1
[8]; brain and plasma, read-out: Kp
  Kp: 0.7
[5]
  IC50: 0.064 µM
[9]
  Fu: 4%

## CN1C[C@@H]2[C@H](C1)[C@H]2CN(Cc1ccc(Cl)c(F)c1)C(=O)c1cn(C)cn1
[3]
  IC50: > 10 µM
[4]
  IC50: > 10 µM

## Cn1cnc(S(=O)(=O)N2C[C@@H]3[C@H](C2)[C@@]3(CNC(=O)c2ccccc2C(F)(F)F)c2ccccn2)c1
[10]
  IC50: > 30 µM
[3]
  IC50: > 30 µM
[11]
  IC50: > 30 µM
[4]
  IC50: > 30 µM
[5]
  IC50: 0.185 µM
[12]
  fraction unbound: 0.076

## Cn1cnc(S(=O)(=O)N2C[C@@H]3[C@H](C2)[C@@]3(CNC(=O)c2ccc(Cl)cc2Cl)CC2CC2)c1
[8]; brain and plasma, read-out: Kp
  Kp: 0.3
[12]
  fraction unbound: 0.05

## CCCCS(=O)(=O)N1C[C@@H]2[C@H](C1)[C@@]2(CNC(=O)c1ccc(Cl)cc1Cl)CC1CC1
[5]
  IC50: 5.5 µM
[6]
  IC50: > 30 µM

## Cn1cnc(S(=O)(=O)N2C[C@@H]3[C@H](C2)[C@@]3(CNC(=O)c2ccccc2Cl)CC2CC2)c1
[8]; brain and plasma, read-out: Kp
  Kp: 0.4
[12]
  fraction unbound: 0.03

## Cn1cnc(S(=O)(=O)N2C[C@@H]3[C@H](C2)[C@@]3(CNC(=O)c2ccc(Cl)c(Cl)c2)CC2CC2)c1
[8]; brain
  Kp: 0.3
[5]
  IC50: 0.082 µM
[9]
  Fu: 2%

## Cn1cnc(S(=O)(=O)N2C[C@@H]3[C@H](C2)[C@@]3(CNC(=O)c2ccccc2C(F)(F)F)CC2CC2)c1
[1]
  Activity: Non-toxic
[2]
  inhibition: Active
[8]; brain
  Kp: 0.83
[13]
  AUC: 1.156 µM·h
[14]
  AUC(0-t) at 6 h: 0.956 µM·h
[15]
  Kp: 0.44
[16]
  AUC(0-t) at 6 h: 0.431 µM·h
[17]
  AUC: 0.976 µM·h
[18]
  clearance: 31 mL/min/kg
[19]
  half-life: 14.5 min
[20]
  Fu: 44.8%
[21]
  Stability: Stable
[10]
  IC50: > 30 µM
[11]
  IC50: > 30 µM
[4]
  IC50: > 30 µM
[5]
  IC50: 0.005 µM
[9]
  Fu: 7%

## CCCS(=O)(=O)N1C[C@@H]2[C@H](C1)[C@@]2(CNC(=O)c1ccc(Cl)cc1Cl)CC1CC1
[5]
  IC50: 0.36 µM
[6]
  IC50: > 30 µM

## Cn1cnc(S(=O)(=O)N2C[C@@H]3[C@H](C2)[C@@]3(CNC(=O)c2ccc(Cl)cc2Cl)c2ccccn2)c1
[8]; brain
  Kp: 1.1
[10]
  IC50: > 30 µM
[3]
  IC50: > 30 µM
[11]
  IC50: > 30 µM
[4]
  IC50: > 30 µM
[5]
  IC50: 0.247 µM
[12]
  fraction unbound: 0.14

## CCCS(=O)(=O)N1CCC(c2ccccc2)([C@H](C)NC(=O)c2ccc(Cl)cc2Cl)CC1
[3]
  IC50: > 10 µM
[4]
  IC50: > 10 µM
[5]
  IC50: 0.0024 µM

## Cn1cnc(S(=O)(=O)N2C[C@@H]3[C@H](C2)[C@@]3(CNC(=O)c2ccc(Cl)cc2)CC2CC2)c1
[8]; brain
  Kp: 0.3
[5]
  IC50: 0.032 µM
[9]
  Fu: 3%

## CC(C)CS(=O)(=O)N1C[C@@H]2[C@H](C1)[C@@]2(CNC(=O)c1ccc(Cl)cc1Cl)CC1CC1
[5]
  IC50: 2.9 µM
[6]
  IC50: > 30 µM

## O=C(NC[C@]1(CC2CC2)[C@@H]2CN(S(=O)(=O)c3cccnc3)C[C@@H]21)c1ccc(Cl)cc1Cl
[5]
  IC50: 0.89 µM
[6]
  IC50: > 30 µM

## Cn1cnc(S(=O)(=O)N2C[C@@H]3[C@H](C2)[C@@]3(CNC(=O)c2cc(Cl)cc(Cl)c2)CC2CC2)c1
[8]; brain
  Kp: 0.3
[5]
  IC50: 0.1 µM
[9]
  Fu: 2%

Reference: ChEMBL document CHEMBL3112567, “Novel GlyT1 inhibitor chemotypes by scaffold hopping. Part 1: development of a potent and CNS penetrant [3.1.0]-based lead” (Bioorg Med Chem Lett, 2014)
